Experimental data as given in patent US6573288B1, “Substituted sulphonyl cyanamides, method for producing same and their use as medicament” (Aventis Pharma Deutschland GmbH, priority 1998, dated 2003).

How the values were obtained:
[1] = tested on: Na+-dependent Cl-/HCO3 exchanger (NCBE); experiment: Inhibition of the Na+-dependent Cl-/HCO3- exchanger (NCBE) in human endothelial cells (BCECF fluorescence, FLIPR, pHi recovery); assay type: cell-based; details: inhibitor concentration of 10 μM; human endothelial cells (ECV-304); in presence of 50 μM HOE 642
Experimental: Inhibition of the Na^+-dependent Cl^−/HCO3 exchanger (NCBE) in human endothelial cells
Human endothelial cells (ECV-304) were detached from culture flasks with the aid of trypsin/EDTA buffer (0.05/0.02% in phosphate buffer) and, after centrifugation (100 g, 5 min), taken up in a buffered salt solution (mmol/l: 115 NaCl, 20 NH4Cl, 5 KCl, 1 CaCl2, 1 MgSO4, 20 N-(2-hydroxyethyl)piperazine-N=-2-ethanesulfonic acid (HEPES), 5 glucose and 1, g/l of bovine serum albumin; pH 7.4). This cell suspension was incubated at 37° C. for 20 min with 5 μM BCECF acetoxymethyl ester. The cells were then washed and resuspended in a sodium- and bicarbonate-free buffer solution (mmol/l: 5 HEPES, 133.8 choline chloride, 4.7 KCl, 1.25 MgCl2, 0.97 K2HPO4, 0.23 KH2PO4, 5 glucose; pH 7.4).
For the subsequent fluorescence measurement in the FLIPR (Fluorescent Imaging Plate Reader), 100 μl of this cell suspension in each case containing 20,000 cells were added by pipette per well of a 96-well microtiter plate and this microtiter plate was centrifuged (100 g, 5 min). In the FLIPR, 100 μl of buffer solution in each case were then removed from a further prepared microtiter plate and added by pipette to each of the 96 wells of the measuring plate. In this case, for a 100% control, i.e. a recovery of the intracellular pH (pHi) by means of the NCBE, a bicarbonate- and sodium-containing buffer solution (mmol/l: 5 HEPES, 93.8 NaCl, 40 NaHCO3, 4.7 KCl, 1.25 CaCl2, 1.25 MgCl2, 0.97 Na2HPO4, 0.23 NaH2PO4, 5 glucose; pH 7.4) which contained 50 μM HOE 642 was used. […]
After addition of the buffer solutions to the dye-loaded acidified cells situated in the measuring plate, the increase in the fluorescence intensity which corresponded to an increase in the pHi was determined in each well of the microtiter plate. The kinetics were in this case recorded at 35° C. over a period of 2 minutes.
The increase in the fluorescence intensities for different concentrations of the compounds according to the invention was related to the two controls and from this the inhibitory action of the substances was determined.

| melting point | Structure (SMILES) | Residual activity of the NCBE [1] |
| --- | --- | --- |
| 172 to 174 °C | CCCCc1nc(SC)c(C(=O)OCC)n1Cc1cccc(Cc2cccc(S(=O)(=O)NC#N)c2)c1 [Example 2, Ethyl 2-butyl-5-methylsulfanyl-3-[3-(3′-cyanoaminosulfonylbenzyl)benzyl]-3H-imidazole-4-carboxylate] | 35.2% |
| 75 °C | N#CNS(=O)(=O)c1cccc(Cc2cccc(Cn3c(-c4ccccc4)nc(Cl)c3C=O)c2)c1 [Example 3, 2-Phenyl-4-formyl-5-chloro-3-[3-(3′-cyanoaminosulfonylbenzyl)benzyl]-3H-imidazole] | 24.3% |
| 62 °C | CCCCc1nc(SC)c(C(=O)OCC)n1Cc1ccc(Cc2cccc(S(=O)(=O)NC#N)c2)cc1 [Example 1, Ethyl 2-butyl-5-methylsulfanyl-3-[4-(3′-cyanoaminosulfonylbenzyl)benzyl]-3H-imidazole-4-carboxylate] | 11.1% |
